Reference: patent US20070129568A1, “Ionic liquids” (nGimat, Co., priority 2005, published 2007)

Assay: Room temperature evaporation rate: rate of weight loss in a stream of 25° C. nitrogen relative to n-butyl acetate
Type: physicochemical
Conditions: not given
Description: Most compounds released by manufacturing processes affect the environment in some manner. […] The room temperature evaporation rates of some of the ILs described in the present invention were compared to several well known compounds by measuring the rate of weight loss in a stream of 25° C. nitrogen relative to the rate of weight loss of n-butyl acetate under the same conditions.

Question: For `OCCO` [ethylene glycol], which “Evaporation Rate (n-Butyl Acetate = 1)” value is on record?
Answer: The value was less than 0.01.

Question: With `CCCCCC` [hexane] as the molecule, how does the “Evaporation Rate (n-Butyl Acetate = 1)” value read?
Answer: Its value is 8.9.

Question: For `CCCCC(CC)C(=O)[O-].CCCCC(CC)C(=O)[O-].[Zn+2]` (stereo not shown) [Zn(2eh)2, zinc (II) 2-ethylhexanoate], which “Evaporation Rate (n-Butyl Acetate = 1)” value is on record?
Answer: Its value is less than 0.001.

Same assay, conditions: rate of weight loss in a stream of 25° C. nitrogen, relative to n-butyl acetate under the same conditions

Question: For `CC(C)O` [IPA], which “Evaporation Rate (n-Butyl Acetate = 1)” value is on record?
Answer: The value was 2.5.

Question: For xylene, which “Evaporation Rate (n-Butyl Acetate = 1)” value is on record?
Answer: Its value is 0.8.

Question: With `CCCCC(CC)C(=O)O` (stereo not shown) [H2eh, 2-ethylhexanoic acid] as the molecule, how does the “Evaporation Rate (n-Butyl Acetate = 1)” value read?
Answer: Its value is 0.003.

Question: Which “Evaporation Rate (n-Butyl Acetate = 1)” value does the source give for `CCCCO` [n-Butanol] here?
Answer: Its value is 0.43.

Question: With `CCC(C)=O` [methyl ethyl ketone] as the molecule, how does the “Evaporation Rate (n-Butyl Acetate = 1)” value read?
Answer: Its value is 5.7.

Question: For `Cc1ccccc1` [toluene], which “Evaporation Rate (n-Butyl Acetate = 1)” value is on record?
Answer: Its value is 1.9.

Question: Which “Evaporation Rate (n-Butyl Acetate = 1)” value does the source give for `CC(C)=O` [acetone] here?
Answer: The value was 14.4.
